# In US20050096323A1, “Diketopiperazine derivatives to inhibit thrombin” (NovoScience Pharma Inc., priority 1999, published 2005):
# Where a name gives a salt, the structure may show the parent alone.
# Key:
# [1] = target: T1, plasmin (Homo sapiens, UniProt P00747); test: Plasmin inhibition constant (Ki), fluorogenic substrate assay; format: biochemical
# T1 construct: purchased Sigma
# Experimental: The activity and selectivity of the present invention can be identified by determination of the inhibition constant (Ki) for serine proteases such thrombin and trypsin and fibrinolytic enzymes such as urokinase, plasmin and tissue plasminogen activator (tPA). All of enzymes are purchased from Sigma. The general assay conditions are as follows. The fluorogenic substrates are dissolved in DMSO and diluted using assay buffer containing 50 mM Tris.HCl (pH 7.8 at 25° C.), 0.1 M NaCl and 0.1% polyethylene glycol 8000 (PEG 8000). […] The assays were conducted using Hitachi F2500 spectrophotometer under ambient temperature and at the excitation and emission wavelengths of 383 nm and 455 nm, respectively. The typical progressive data of the enzymatic assays are shown in FIGS. 1-3, and the determination of inhibition constant (Ki) is shown in FIG. 4.
# [2] = target: T2, thrombin (Homo sapiens, UniProt P00734); test: Thrombin inhibition constant (Ki), fluorogenic substrate assay; format: biochemical; details: for Cycloargatroban vs. Argatroban, Ki(Thrombin): thrombin inhibition activity relative to argatroban
# T2 construct: purchased Sigma
# [3] = system: ICR mice; test: Acute toxicity, oral gavage, determination of the maximal dose; format: in vivo
# Description: The dose is based on maximal dissolution rate and maximal administered volume of the drug.
# [4] = system: ICR mice; test: Acute toxicity, intravenous injection, determination of LD50; format: in vivo; details: for Number of deaths: 10 mice
# Description: 1) Determination of LD50 (Tables III and IV): ICR mice, 18 ˜20 g, were divided into five groups, with 10 animals in each group (half male and half female). The ratio of doses between groups was 1:0.85.
# [5] = system: pooled normal human plasma; test: Ex vivo coagulation assay (APTT prolongation); format: biochemical; details: normal citrated human plasma
# Experimental: Frozen-pooled human plasma was obtained from Sigma. Measurement of APTT was made using the ELECTRA™ 800 automated coagulometer (Medical Laboratory Automation Inc.) using the automated APTT reagent (SIGMA) as the initiator of clotting according to the manufacture's instructions. The assay was conducted by making a series of dilution of the reference and test compounds in rapidly thawed plasma (compound: plasma=0.1 ml:0.9 ml) followed by adding the mixed solution to the wells of the assay carousel. Tris buffers (pH 7.8 at 25° C.) were used through the entire assay.
# T1 sequence (P00747 581-810 limits assumed, species assumed): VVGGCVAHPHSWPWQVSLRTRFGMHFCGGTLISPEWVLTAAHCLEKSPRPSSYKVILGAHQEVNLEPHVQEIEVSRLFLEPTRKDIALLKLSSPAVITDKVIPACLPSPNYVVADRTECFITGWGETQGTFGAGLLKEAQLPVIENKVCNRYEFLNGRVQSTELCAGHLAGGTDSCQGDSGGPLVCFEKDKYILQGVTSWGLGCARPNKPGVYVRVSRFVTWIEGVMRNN
# T1 sequence (P00747 97-580 partner limits assumed, species assumed): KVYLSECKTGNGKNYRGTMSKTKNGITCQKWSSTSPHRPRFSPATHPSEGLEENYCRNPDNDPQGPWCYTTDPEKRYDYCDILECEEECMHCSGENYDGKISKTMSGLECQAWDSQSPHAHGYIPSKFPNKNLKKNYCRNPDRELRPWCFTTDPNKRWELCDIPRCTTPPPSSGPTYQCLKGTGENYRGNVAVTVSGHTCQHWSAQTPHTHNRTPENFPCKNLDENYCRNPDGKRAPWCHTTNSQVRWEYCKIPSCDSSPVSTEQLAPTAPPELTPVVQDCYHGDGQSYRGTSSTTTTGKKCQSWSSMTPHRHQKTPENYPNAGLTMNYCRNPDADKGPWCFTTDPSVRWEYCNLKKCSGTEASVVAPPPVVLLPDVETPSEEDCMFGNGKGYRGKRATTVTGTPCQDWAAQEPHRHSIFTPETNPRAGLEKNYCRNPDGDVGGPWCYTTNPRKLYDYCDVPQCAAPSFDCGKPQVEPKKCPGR
smiles,measurement,setting,value
"CC1CNc2c(cccc2S(=O)(=O)N2C(=O)C3CC(C)CCN3C(=O)C2CCCNC(=N)N)C1 [NPI1999, (3S,6R,8R)-Bicyclo[4.4.0]-1,4-diaza-3-(3-guanidinopropyl)-4-N-(1,2,3,4-tetrahydro-3-methyl-8-quinolinesulfonyl)-8-methyl-2,5-decanedione, hydrochoride salt]",Cycloargatroban [Ki (Enzyme)/Ki (Thrombin)] vs. Argatroban [Ki (Enzyme)/Ki (Thrombin)],[1]; enzyme = plasmin,−0.67 fold
same,Ki,[1]; substrate D-Ala-Leu-Lys-AMC,528 µM
same,Ki,"[2]; Table II, method of example 9",0.02 to 0.04 µM
same,Ki,"[2]; substrate Tos-Gly-Pro-Arg-AMC, pH 7.8",0.04 µM
same,"Cycloargatroban vs. Argatroban, Ki(Thrombin)",[2]; listed as Cycloargatroban,−2.1 fold
same,"Cycloargatroban vs. Argatroban, Ki(Thrombin)",[2]; listed as cycloargatroban,2.1 fold
same,Maximal dose of oral gavage,"[3]; ICR mice, i.g.",2860 mg/kg
same,maximal dose of i.g.,"[3]; ICR mice, i.g.",2.86 g/kg/day
same,mortality,"[3]; i.g. 1.43 g/kg twice, up to one week",No mortality was observed
same,Death rate (%),[4]; i.v. 7.83 mg/kg,0%
same,Number of deaths,[4]; i.v. 7.83 mg/kg,0
same,Number of death,"[4]; i.v. 7.83 mg/kg, ♀, 4-13 days after administration",0
same,Number of death,"[4]; i.v. 7.83 mg/kg, ♀, 1 day after administration",0
same,Number of death,"[4]; i.v. 7.83 mg/kg, ♀, 2 days after administration",0
same,Number of death,"[4]; i.v. 7.83 mg/kg, ♀, 3 days after administration",0
same,Number of death,"[4]; i.v. 7.83 mg/kg, ♀, day of administration",0
same,Number of death,"[4]; i.v. 7.83 mg/kg, ♂, 4-13 days after administration",0
same,Number of death,"[4]; i.v. 7.83 mg/kg, ♂, 1 day after administration",0
same,Number of death,"[4]; i.v. 7.83 mg/kg, ♂, 2 days after administration",0
same,Number of death,"[4]; i.v. 7.83 mg/kg, ♂, 3 days after administration",0
same,Number of death,"[4]; i.v. 7.83 mg/kg, ♂, day of administration",0
same,Death rate (%),[4]; i.v. 9.21 mg/kg,30%
same,Number of deaths,[4]; i.v. 9.21 mg/kg,3
same,Number of death,"[4]; i.v. 9.21 mg/kg, ♀, 4-13 days after administration",0
same,Number of death,"[4]; i.v. 9.21 mg/kg, ♀, 1 day after administration",0
same,Number of death,"[4]; i.v. 9.21 mg/kg, ♀, 2 days after administration",0
same,Number of death,"[4]; i.v. 9.21 mg/kg, ♀, 3 days after administration",0
same,Number of death,"[4]; i.v. 9.21 mg/kg, ♀, day of administration",2
same,Number of death,"[4]; i.v. 9.21 mg/kg, ♂, 4-13 days after administration",0
same,Number of death,"[4]; i.v. 9.21 mg/kg, ♂, 1 day after administration",0
same,Number of death,"[4]; i.v. 9.21 mg/kg, ♂, 2 days after administration",0
same,Number of death,"[4]; i.v. 9.21 mg/kg, ♂, 3 days after administration",0
same,Number of death,"[4]; i.v. 9.21 mg/kg, ♂, day of administration",1
same,Death rate (%),[4]; i.v. 10.84 mg/kg,50%
same,Number of deaths,[4]; i.v. 10.84 mg/kg,5
same,Number of death,"[4]; i.v. 10.84 mg/kg, ♀, 4-13 days after administration",0
same,Number of death,"[4]; i.v. 10.84 mg/kg, ♀, 1 day after administration",0
same,Number of death,"[4]; i.v. 10.84 mg/kg, ♀, 2 days after administration",0
same,Number of death,"[4]; i.v. 10.84 mg/kg, ♀, 3 days after administration",0
same,Number of death,"[4]; i.v. 10.84 mg/kg, ♀, day of administration",3
same,Number of death,"[4]; i.v. 10.84 mg/kg, ♂, 4-13 days after administration",0
same,Number of death,"[4]; i.v. 10.84 mg/kg, ♂, 1 day after administration",0
same,Number of death,"[4]; i.v. 10.84 mg/kg, ♂, 2 days after administration",0
same,Number of death,"[4]; i.v. 10.84 mg/kg, ♂, 3 days after administration",0
same,Number of death,"[4]; i.v. 10.84 mg/kg, ♂, day of administration",2
same,Death rate (%),[4]; i.v. 12.75 mg/kg,80%
same,Number of deaths,[4]; i.v. 12.75 mg/kg,8
same,Number of death,"[4]; i.v. 12.75 mg/kg, ♀, 4-13 days after administration",0
same,Number of death,"[4]; i.v. 12.75 mg/kg, ♀, 1 day after administration",0
same,Number of death,"[4]; i.v. 12.75 mg/kg, ♀, 2 days after administration",0
same,Number of death,"[4]; i.v. 12.75 mg/kg, ♀, 3 days after administration",0
same,Number of death,"[4]; i.v. 12.75 mg/kg, ♀, day of administration",4
same,Number of death,"[4]; i.v. 12.75 mg/kg, ♂, 4-13 days after administration",0
same,Number of death,"[4]; i.v. 12.75 mg/kg, ♂, 1 day after administration",0
same,Number of death,"[4]; i.v. 12.75 mg/kg, ♂, 2 days after administration",0
same,Number of death,"[4]; i.v. 12.75 mg/kg, ♂, 3 days after administration",0
same,Number of death,"[4]; i.v. 12.75 mg/kg, ♂, day of administration",4
same,Death rate (%),[4]; i.v. 15.00 mg/kg,90%
same,Number of deaths,[4]; i.v. 15.00 mg/kg,9
same,Number of death,"[4]; i.v. 15.00 mg/kg, ♀, 4-13 days after administration",0
same,Number of death,"[4]; i.v. 15.00 mg/kg, ♀, 1 day after administration",0
same,Number of death,"[4]; i.v. 15.00 mg/kg, ♀, 2 days after administration",0
same,Number of death,"[4]; i.v. 15.00 mg/kg, ♀, 3 days after administration",0
same,Number of death,"[4]; i.v. 15.00 mg/kg, ♀, day of administration",4
same,Number of death,"[4]; i.v. 15.00 mg/kg, ♂, 4-13 days after administration",0
same,Number of death,"[4]; i.v. 15.00 mg/kg, ♂, 1 day after administration",0
same,Number of death,"[4]; i.v. 15.00 mg/kg, ♂, 2 days after administration",0
same,Number of death,"[4]; i.v. 15.00 mg/kg, ♂, 3 days after administration",0
same,Number of death,"[4]; i.v. 15.00 mg/kg, ♂, day of administration",5
same,effect on APTT compared with argatroban,[5],less strong effect
same,effect on activated partial thromboplastin time (APTT),[5]; FIG. 5,prolonged the APTT in a dose dependent manner
